Assay results reported in patent US20250213744A1, “ANTIMICROBIAL HYDROGEL COMPOSITION” (priority 2022, published 2025).
Values joined by “and” are separate entries in the source; they are usually repeats but may differ in a detail not shown here. Identical values can stand only once. “Also recorded” adds a separate entry of the source.

Columns and labels:
P. aeruginosa (PAO1) = experiment: Modified Kirby-Bauer test, zone of inhibition; assay type: cell-based, Pseudomonas aeruginosa; settings: for Ratio of bacterial zone of inhibition following application of plasma jet to antimicrobial loaded gel over non-plasma activated gel: antimicrobial loaded PAA/PVA composite gel
Excerpt: (§1) The Ar-CAP jet shown in FIG. 14 consisted of an internal steel needle electrode (outer diameter=0.9 mm, inner diameter=0.6 mm, length 51 mm) sealed inside a quartz tube (inner diameter=1.5 mm, outer diameter=3 mm). Two external copper electrodes of length 4 mm 5.6 cm from electrode, spaced 5.4 cm apart and 6.6 cm from the bottom of the tube. Ar gas was kept at 1.0 standard litres per minute (SLPM) and generated at 10 kV at 23.5 kHz. Voltage and current waveforms were monitored using oscilloscope. The gap distance was 1.5 cm and the Ar-CAP jet was stationary unless otherwise stated. 31
(§2) Bacterial overnight was made as outlined, subcultures were made in fresh MH broth absorbance corrected to OD 0.5 (˜[…] CFU/mL). 100 μL was added to Muller-Hinton agar to and spread to create a bacterial lawn. Gel discs were placed in the centre of the plate and either treated with Ar-CAP or left untreated. Plates were incubated at 37° C. for 18 h, facing up to prevent the gel from moving. Zone of inhibition (ZOI) was measured and corrected to the diameter of the gel.
(§3) The Kirby-Bauer (KB) test is a standard test used to assess the susceptibility of bacteria to different antimicrobials by measuring the zone of bacterial growth inhibition (ZOI) due to the out diffusion of the antimicrobial agent from a sterile disc soaked in that compound. In this case, a modified form of the KB test was performed. Plasma activate antimicrobial loaded, composite hydrogels were compared to non-activated antimicrobial loaded, composite hydrogels and non-loaded, composite hydrogels with and without plasma activation.

S. aureus (H560) = experiment: Modified Kirby-Bauer test, zone of inhibition; assay type: cell-based, Staphylococcus aureus; settings: for Ratio of bacterial zone of inhibition following application of plasma jet to antimicrobial loaded gel over non-plasma activated gel: antimicrobial loaded PAA/PVA composite gel
Excerpt: as §1, §2, §3

E. faecalis (JH2-2) = experiment: Modified Kirby-Bauer test, zone of inhibition; assay type: cell-based, Enterococcus faecalis; settings: for Ratio of bacterial zone of inhibition following application of plasma jet to antimicrobial loaded gel over non-plasma activated gel: antimicrobial loaded PAA/PVA composite gel
Excerpt: as §1, §2, §3

[1] = Passive leaching of antimicrobial from PAA composite gel, judged qualitatively from ZOI data; settings: without CAP; judged from ZOI and ZOI ratios
Excerpt: The variation in bacterial susceptibility to the plasma jet applied to the unloaded gel is interesting and is thought to related to the varying susceptibility of different species to the RONS generated by the CAP. Sensitivity to different antimicrobials varied as a function of both the antimicrobial moiety and the bacterial species. In this case, P. aeruginosa is seen to be sensitive to Ag^+ passively leaching from the composite gel, while S. aureus and E. faecalis are not.
Relative passive leaching of different antimicrobials can be qualitatively assessed by looking at FIG. 5-7. The difficulty in cross comparison of the different antimicrobial susceptibility of the bacterial species to the various antimicrobials tested. The key comparison here is to look at the ratio of ZOI of the antimicrobial loaded composite gel (1st column in graphs below) to the zone of inhibition for the same loaded gel following application of the CAP jet 2nd column).

[2] = Ninhydrin assay, gentamicin release from PAA/PVA composite hydrogel with and without Ar-CAP jet; assay type: physicochemical
Protocol: 0.1 g of the drug loaded PAA powder was mixed with dry PVA (5% (w/v)) to obtain a homogenous powder and then is dissolved at 95° C. for 1 h. 20 ml of the PAANaPA/PVA solution was then added to a […] diameter petri dish and spread evenly. The gels were placed into a −20° C. freezer until frozen and removed and defrosted at 25° C. this process was repeated twice more to enable cryo-crosslinking of the PVA.
The Ar-CAP jet shown in FIG. 14 consisted of an internal steel needle electrode (outer diameter=0.9 mm, inner diameter=0.6 mm, length 51 mm) sealed inside a quartz tube (inner diameter=1.5 mm, outer diameter=3 mm). […] Voltage and current waveforms were monitored using oscilloscope. […]
Aminoglycoside was made up in pH 7.4 assay buffer (39.1 mL 0.2 M sodium hydroxide solution was added to 50 mL 0.2 M monobasic potassium phosphate solution and made up to a final volume of 200 mL with DI H2O) to starting concentration of 1 mg/mL. […] 200 μL was aliquoted into a round bottom 96-well plate and the absorbance was read at 560 nm (Clariostar, Omega). […]
Gentamicin is an aminoglycoside antibiotic used both systemically and topically. […] Ninhydrin was used to quantify release of gentamicin both prior to CAP treatment (passive release) and following CAP treatment. […] The Ninhydrin assay was used to quantify release of gentamicin with (triggered release) and without CAP treatment (passive release).

[3] = two secondary amine groups; net positive charge at pH 7; cited from earlier work
[4] = system: clinical strains of S. aureus; settings: many clinical strains of S. aureus; cited from earlier work
[5] = system: clinical strains of P. aeruginosa; settings: many clinical strains of P. aeruginosa; cited from earlier work

Cetrimide
Ratio of bacterial zone of inhibition following application of plasma jet to antimicrobial loaded gel over non-plasma activated gel (P. aeruginosa (PAO1)): 2.7
Ratio of bacterial zone of inhibition following application of plasma jet to antimicrobial loaded gel over non-plasma activated gel (S. aureus (H560)): 1.8
Ratio of bacterial zone of inhibition following application of plasma jet to antimicrobial loaded gel over non-plasma activated gel (E. faecalis (JH2-2); E. faecalis): 1.3
sensitivity of E. faecalis compared with P. aeruginosa and S. aureus (E. faecalis (JH2-2); loaded composite gel): less sensitive
passive release / leaching from the PAA composite gel (qualitative) [1]: much greater degree of passive out-diffusion

O=[N+]([O-])[O-].[Ag+] [Silver, Silver Nitrate]
Ratio of bacterial zone of inhibition following application of plasma jet to antimicrobial loaded gel over non-plasma activated gel (P. aeruginosa (PAO1)): 1.5
sensitivity to antimicrobial passively leaching from the composite gel (P. aeruginosa (PAO1); no CAP): sensitive
Ratio of bacterial zone of inhibition following application of plasma jet to antimicrobial loaded gel over non-plasma activated gel (S. aureus (H560)): 7
sensitivity to antimicrobial passively leaching from the composite gel (S. aureus (H560); no CAP): are not
sensitivity to antimicrobial passively leaching from the composite gel (E. faecalis (JH2-2); E. faecalis, no CAP): are not
Ratio of bacterial zone of inhibition following application of plasma jet to antimicrobial loaded gel over non-plasma activated gel (E. faecalis (JH2-2); E. faecalis): 6
passive release / leaching from the PAA composite gel (qualitative) [1]: much greater degree of passive out-diffusion

gentamicin
gentamicin released from gel into the surrounding PBS (triggered release) ([2]; after two minutes treatment with Ar CAP jet): 61 mg/mL
gentamicin passively released from gel ([2]; without CAP treatment): 1.1 mg/mL
Ratio of bacterial zone of inhibition following application of plasma jet to antimicrobial loaded gel over non-plasma activated gel (P. aeruginosa (PAO1)): 3.6
Ratio of bacterial zone of inhibition following application of plasma jet to antimicrobial loaded gel over non-plasma activated gel (S. aureus (H560)): 8.2
Ratio of bacterial zone of inhibition following application of plasma jet to antimicrobial loaded gel over non-plasma activated gel (E. faecalis (JH2-2); E. faecalis): >10
passive release / leaching from the PAA composite gel (qualitative) [1]: little passive leaching
pka of secondary amine groups [3]: 8.8 and 9.9
Minimal Inhibitory Concentration (MIC) [4]: 2000 to 4000 µg/mL
Minimal Inhibitory Concentration (MIC) [5]: 2000 to 4000 µg/mL

Polymyxin B
Ratio of bacterial zone of inhibition following application of plasma jet to antimicrobial loaded gel over non-plasma activated gel (P. aeruginosa (PAO1)): 13
Ratio of bacterial zone of inhibition following application of plasma jet to antimicrobial loaded gel over non-plasma activated gel (S. aureus (H560)): 34
Ratio of bacterial zone of inhibition following application of plasma jet to antimicrobial loaded gel over non-plasma activated gel (E. faecalis (JH2-2); E. faecalis): >30
passive release / leaching from the PAA composite gel (qualitative) [1]: relatively no passive release; also recorded: little passive leaching
